Measurements: patent US8431698B2, “Bioluminescent endoscopy methods and compounds” (BioLume Inc., priority 2007, dated 2013)

What was measured:
[1] = tested on: aequorin photoprotein luciferase or luciferase from Renilla; test: Duration of glow of luciferin in water after adding luciferase in presence of Ca++; assay type: biochemical; details: 5 mg luciferin in one liter of water, about 10 mgs luciferase, Ca++ present; depends on water temperature
Procedure: Thus, for example, 5 mg of luciferin, such as coelenterazine, in one liter of water will glow brightly for at least about 10 to 20 minutes, depending on the temperature of the water, when about 10 mgs of luciferase, such as aequorin photoprotein luciferase or luciferase from Renilla, is added thereto in presence of Ca^++. Increasing the concentration of luciferase, for example, to 100 mg/L, provides a particularly brilliant light display.

[2] = Rat bioluminescence imaging after coelenterazine and Renilla luciferase via bilateral jugular cannulas; assay type: in vivo; details: coelenterazine 50 mM in Hank's balanced salt solution in one jugular cannula, Renilla luciferase 5 mg/ml in the opposite
Procedure: (§1) A rat was equipped with bilateral jugular cannulas. To one was applied a solution of coelenterazine (50 mM) in Hank's balanced salt solution and to the opposite jugular cannula was administered Renilla luciferase, 5 mg/ml in Hank's balanced slat solution. An image was obtained and was pseudocoloured with Scion Image according to the light level obtained by a Princeton Instruments camera and is shown at FIG. 19.
as §1, with “20.” for “19.”
as §1, with “21.” for “19.”

[3] = molecular target: T1, Renilla luciferase (Renilla reniformis, UniProt P27652); test: Visible glow of coelenterazine with crude extract of bacteria expressing Renilla luciferase in assay buffer; assay type: biochemical; details: about 0.005 mg coelenterazine, about 0.25 ml crude extract, 100 ml assay buffer
T1 construct: made in house
T1 sequence (P27652 1-311): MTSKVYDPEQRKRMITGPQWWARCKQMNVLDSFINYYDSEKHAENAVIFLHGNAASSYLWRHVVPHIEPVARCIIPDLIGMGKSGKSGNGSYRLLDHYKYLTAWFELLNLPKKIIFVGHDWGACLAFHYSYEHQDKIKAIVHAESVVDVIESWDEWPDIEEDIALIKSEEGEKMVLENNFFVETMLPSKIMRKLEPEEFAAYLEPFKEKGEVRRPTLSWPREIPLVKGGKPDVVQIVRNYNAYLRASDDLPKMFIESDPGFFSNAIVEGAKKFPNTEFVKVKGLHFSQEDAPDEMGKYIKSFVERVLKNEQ
Procedure: In certain embodiments herein, about 1 to 10 mg, or preferably 2-5 mg, more preferably about 3 mg of coelenterazine will be used with about 100 mg of Renilla luciferase. The precise amounts, of course can be determined empirically, and, also will depend to some extent on the ultimate concentration and application.

## Oc1ccc(Cc2nc3c(Cc4ccccc4)nc(-c4ccc(O)cc4)cn3c2O)cc1 [coelenterazine]
[1]
  time of bright glow: 10 to 20 min
[2]
  bioluminescence image, liver (FIG. 20): patchy contrast regions in the liver
  bioluminescence image, whole animal (FIG. 21): perfusion of bioluminescence in the whole animal
[3]
  glow produced: sufficient to produce a visible and lasting glow
